# Experimental data: patent US6447748B1, “Benzamide compounds for cancer imaging and therapy” (Research Corporation Technologies, Inc., priority 1993, dated 2002)
# “And” between values parts separate entries of the source, which are not always exact repeats. Equal entries are not always repeated.
# Assay: Biodistribution of 2-[125I]BP and 3-[125I]BP in Sprague Dawley rats
# Format: in vivo
# Details: for Biodistribution Blood / Biodistribution Brain / Biodistribution Heart / Biodistribution Kidney / Biodistribution Liver / Biodistribution Lung / Biodistribution Muscle / Biodistribution Spleen / Biodistribution Thyroid: average of four rats
# Experimental: A similar procedure was performed with 2-[^125I]BP and 3-[^125I]BP but blood samples were only collected at 1, 6 and 24 hours.
Biodistribution Brain (1 hr.) [% ID/whole organ],Biodistribution Heart (1 hr.) [% ID/whole organ],Biodistribution Kidney (1 hr.) [% ID/whole organ],Biodistribution Liver (1 hr.) [% ID/whole organ],Biodistribution Lung (1 hr.) [% ID/whole organ],Biodistribution Muscle (1 hr.) [% ID/whole organ],Biodistribution Spleen (1 hr.) [% ID/whole organ],Biodistribution Thyroid (1 hr.) [% ID/whole organ],Biodistribution Blood (6 hr.) [% ID/whole organ],Biodistribution Brain (6 hr.) [% ID/whole organ],Biodistribution Heart (6 hr.) [% ID/whole organ],Biodistribution Kidney (6 hr.) [% ID/whole organ],Biodistribution Liver (6 hr.) [% ID/whole organ],Biodistribution Lung (6 hr.) [% ID/whole organ],Biodistribution Muscle (6 hr.) [% ID/whole organ],Biodistribution Spleen (6 hr.) [% ID/whole organ],Biodistribution Thyroid (6 hr.) [% ID/whole organ],Biodistribution Blood (24 hr.) [% ID/whole organ],Compound,clearance,Biodistribution Blood (1 hr.),other results
0.48 ± 0.12,0.17 ± 0.03,1.68 ± 0.08,22.36 ± 1.29,1.06 ± 0.21,16.15 ± 2.13,0.32 ± 0.07,0.14 ± 0.04,1.30 ± 0.12,0.05 ± 0.01,0.05 ± 0.00,0.39 ± 0.06,6.07 ± 0.18,0.21 ± 0.02,6.75 ± 0.32,0.12 ± 0.01,1.91 ± 0.23,0.50 ± 0.05,"O=C(NC1CCN(Cc2ccccc2)CC1)c1ccccc1[125I] [2-[^125I]BP, ^125I-(N-benzylpiperidin-4-yl)-2-iodobenzamide]",fast clearance from the blood and normal organs,2.06 ± 0.42 % ID/whole organ,Biodistribution Brain (24 hr.): 0.01 ± 0.00 % ID/whole organ; Biodistribution Heart (24 hr.): 0.01 ± 0.00 % ID/whole organ; Biodistribution Kidney (24 hr.): 0.05 ± 0.01 % ID/whole organ; Biodistribution Liver (24 hr.): 0.59 ± 0.02 % ID/whole organ; Biodistribution Lung (24 hr.): 0.04 ± 0.00 % ID/whole organ; Biodistribution Muscle (24 hr.): 1.95 ± 0.11 % ID/whole organ; Biodistribution Spleen (24 hr.): 0.02 ± 0.00 % ID/whole organ; Biodistribution Thyroid (24 hr.): 2.11 ± 0.35 % ID/whole organ
0.61 ± 0.04,0.15 ± 0.01,3.49 ± 0.23,13.35 ± 0.62,0.82 ± 0.07,9.36 ± 0.58,0.47 ± 0.02,0.13 ± 0.02,0.55 ± 0.13,0.53 ± 0.26,0.07 ± 0.01,2.25 ± 0.16,9.06 ± 0.71,0.43 ± 0.05,1.23 ± 0.49,0.37 ± 0.05,0.53 ± 0.26,0.52 ± 0.05,"O=C(NC1CCN(Cc2ccccc2)CC1)c1cccc([125I])c1 [3-[^125I]BP, ^125I-(N-Benzylpiperidin-4-yl)-3-iodobenzamide]",fast clearance from the blood,0.75 % ID/whole organ and 0.75 ± 0.05 % ID/whole organ,Biodistribution Brain (24 hr.): 0.81 ± 0.07 % ID/whole organ; Biodistribution Heart (24 hr.): 0.15 ± 0.01 % ID/whole organ; Biodistribution Kidney (24 hr.): 1.75 ± 0.13 % ID/whole organ; Biodistribution Liver (24 hr.): 6.65 ± 1.63 % ID/whole organ; Biodistribution Lung (24 hr.): 1.05 ± 0.04 % ID/whole organ; Biodistribution Muscle (24 hr.): 03.7 ± 0.44 % ID/whole organ; Biodistribution Spleen (24 hr.): 0.65 ± 0.08 % ID/whole organ; Biodistribution Thyroid (24 hr.): 3.43 ± 0.21 % ID/whole organ
